Results reported in patent publication US20260152468A1, “NOVEL CERAMIDE, PREPARATION METHOD THEREFOR, AND USE THEREOF” (SHENZHEN DIKEMAN BIOTECHNOLOGY CO., LTD., priority 2022, published 2026).

Legend:
[1] = system: AQP3 (aquaporin 3) expression in HaCat cells; test: Moisturizing efficacy by AQP3 cell assay; type: cell-based, human; conditions: 2.5 mmol/L
Experimental: Aquaporin 3 (AQP3) is a transporter factor responsible for transport of water, glycerol and urea on cell membrane, which is mainly expressed in keratinocytes and skin fibroblasts. AQP3 is not only involved in skin hydration and barrier function, but also plays an important role in skin damage, repair and healing, and is an important guarantee for maintenance of normal skin morphology and function.
The HaCat cells were seeded in a 96-well plate at a density of 1×10^4 cells/well and placed in an incubator overnight to allow cell adhesion. After 24 hours of incubation, the supernatant was discarded, and 100 μL of samples (i.e., the product obtained in Example 1) at different concentrations diluted with DMEM medium and DMEM medium free of the samples as a negative control group were added into the plate, each group in triplicate, followed by incubating under an atmosphere of 5% CO2 expressed by mass fraction at 37° C. At 2 hours after administration, […] LPS was added into both lipopolysaccharide model groups and experimental groups and then co-incubated for 24 hours. After completing the reaction, 50 μL of the cell supernatant was taken and detected for the AQP3 gene expression in the cells using a AQP3 assay kit.

[2] = system: interleukin-6 (IL-6) cytokine expression in B16 murine melanoma cells; test: Anti-inflammatory repair efficacy, LPS-induced cell assay (IL-6 ELISA kit); type: cell-based; conditions: 1 mmol/L
Experimental: B16 murine melanoma cells were seeded in a 96-well plate at a cell density of 1×10^4 cells/well and placed in an incubator overnight to allow cell adhesion. After 24 hours of incubation, the supernatant was discarded, and 100 μL of samples (i.e., the product obtained in Example 1) at different concentrations diluted with DMEM medium and DMEM culture medium free of the samples as a negative control group were added into the cells, each group in triplicate, followed by incubating under an atmosphere of 5% CO2 expressed by mass fraction at 37° C. At 2 hours after administration, 10 μg/mL LPS was added into both lipopolysaccharide model groups and experimental groups and then co-incubated for 24 hours. After the reaction, 50 μL of the cell supernatant was taken and detected for IL-6 gene expression using a IL-6 ELISA kit.

[3] = system: human keratinocytes (HaCaT) cells; test: Cell proliferation and viability by MTT assay; type: cell-based
Experimental: Cell proliferation and viability as detected by methylthiazolyldiphenyl-tetrazoliun bromide (MTT) assay: human keratinocytes (HaCaT) cells were seed in a 96-well plate at a cell density of 1×10^4 cells/well and placed in an incubator overnight. After 24 hours of incubation, the supernatant was discarded and 100 μL of culture medium containing samples (i.e., the product obtained in Example 1) at different concentrations or blank control (culture medium only) was added into the cells, and incubated for additional 24 hours, followed by removing the culture medium, adding 100 μL of MTT to each well, measuring the absorbance at 450 nm, and calculating the cell viability as: Cell viability=Adosing/Ablank×100%.

Substance	increase of expression level of AQP3, comparison (FIG. 8) [1]	inhibition of expression of IL-6 inflammatory factors, comparison (FIG. 5) [2]	abilities of cell healing and tissue-repairing (cell proliferation and viability assay, FIGS. 1-3) [3]
ceramide 3B	effectively increase the expression level of AQP3	effectively inhibit the expression of IL-6 inflammatory factors	relatively good abilities of cell healing and tissue-repairing
ceramide 3	effectively increase the expression level of AQP3	effectively inhibit the expression of IL-6 inflammatory factors	–
